Holding throughout (format): physicochemical
The nature of data set [1]: Maximum absorption wavelength (λmax) after color development, spectrophotometer MCPD3000. As to conditions: after color development. On the procedure:
(§1) • [1] Maximum Absorption Wavelength (λmax): The maximum absorption wavelength after color development, measured using a spectrophotometer (instantaneous multichannel photodetector MCPD3000) manufactured by Otsuka Electronics Co., Ltd. was used as an indicator for the color tone during the color development. • [2] 23°C Color Optical Density (A23): A difference between an absorbancy measured after light irradiation at 23°C for 240 seconds {ε(240)} and an absorbancy without light irradiation ε(0) at the maximum absorption wavelength was used as an indicator for the color optical density. […] 35°C Color Optical Density (A35): A difference between an absorbancy measured after light irradiation at 35°C for 240 seconds {ε(240)} and an absorbancy without light irradiation ε(0) at the first and second absorption wavelengths was used as an indicator for the color optical density. […] 23°C color fading half-life [τ1/2 (sec.)]: A time required for the absorbancy of the sample at the maximum absorption wavelength to decrease to 1/2 of {ε(240)-ε(0)} when the light irradiation is terminated after the light irradiation at 23°C for 240 seconds, was used as an indicator for the color fading speed. The shorter this time, the higher the color fading speed. • [6] Residual rate (A90/A0×100): The obtained photochromic plastic lens was subjected to accelerated deterioration using a xenon weather meter X25 manufactured by Suga Test Instruments Co., Ltd. for 90 hours. Subsequently, the color optical density was evaluated before and after the test, then a color optical density before the test (A0) and a color optical density after the test (A90) were measured, and a ratio (A90/A0) was defined as a residual rate. The residual rate was used as an indicator for a color developing durability. The higher the residual rate, the higher the color developing durability.

Data set [2] is described as follows: High-temperature color development rate (A35/A23×100), temperature dependency. On the procedure: as §1
Data set [3] is described as follows: Residual rate (A90/A0×100) after 90 h accelerated deterioration in xenon weather meter X25, color developing durability. Particulars: after 90 h accelerated deterioration. On the procedure:
as §1

Setting [4] is: photochromic cured product, thickness 1 mm (kneading method).
The mark [5] stands for this setting: photochromic laminate prepared by coating method.

Each structure is given as a SMILES string. Where “and” joins values, the source holds several entries; their conditions need not be identical. Equal values may be shown once.

Take `COc1ccc(C2(c3ccc(OC)cc3)C=Cc3c4c(c5cc(N6CCc7ccccc76)c(-c6ccc(OC)cc6OC)cc5c3O2)-c2ccccc2C4(C)C)cc1` [Formula (I), reference compound]: the results for the Maximum absorption wavelength in data set [1] (binder sheet (binder method)), in data set [1] (setting [4]) and in data set [1] (setting [5]) were 522 nm, 526 nm and 522 nm, respectively. Moreover, the “A35/A23 *100” value in data set [2] (binder sheet (binder method)) stood at 72%; in data set [2] (setting [4]), 73%; in data set [2] (setting [5]), 71%. In addition, the Residual rate came out at 84% in data set [3] (binder sheet (binder method)), 74% in data set [3] (setting [4]) and 71% in data set [3] (setting [5]).

For the compound `COCCCC1(CCCOC)c2ccccc2-c2c1c1c(c3cc(OC)c(N4CC(C)c5ccccc54)cc23)OC(c2ccc(OC)cc2)(c2ccc(OC)cc2)C=C1` (stereo not drawn) [Formula (39A)], the figures for the Maximum absorption wavelength in data set [1] (binder sheet (binder method)), in data set [1] (setting [4]) and in data set [1] (setting [5]) were 533 nm, 537 nm and 533 nm, respectively. The “A35/A23 *100” value in data set [2] (binder sheet (binder method)) was found to be 75%; in data set [2] (setting [4]), 76%; in data set [2] (setting [5]), 75%. Besides, the Residual rate was found to be 85% in data set [3] (binder sheet (binder method)), 76% in data set [3] (setting [4]) and 71% in data set [3] (setting [5]).

Take `CCCOc1ccc(C2(c3ccc(OCCC)cc3)C=Cc3c4c(c5cc(N6CCc7ccccc76)c(OC)cc5c3O2)-c2ccc(-c3ccc(C)cc3)cc2C42CCCCCCC2)cc1` [Formula (35A)]: the Maximum absorption wavelength worked out at 531 nm in data set [1] (binder sheet (binder method)), 535 nm in data set [1] (setting [4]) and 531 nm in data set [1] (setting [5]). Besides, the “A35/A23 *100” value in data set [2] (binder sheet (binder method)) was 78%; in data set [2] (setting [4]), 80%; in data set [2] (setting [5]), 78%. Moreover, the Residual rate in data set [3] (binder sheet (binder method)) was 90%; in data set [3] (setting [4]) it was 80%; in data set [3] (setting [5]), 75%.

Regarding `CCC1(CC)CCC2(CC1)c1cc(OC(F)(F)F)ccc1-c1c2c2c(c3cc(OC)c(N4CCc5ccccc54)cc13)OC(c1ccc(OC)cc1)(c1ccc(OCCCO[Si](C)(C)CC[Si](O[Si](C)(C)C)(O[Si](C)(C)C)O[Si](C)(C)C)cc1)C=C2` (stereo not drawn) [Formula (74A)], the figures for the Maximum absorption wavelength in data set [1] (binder sheet (binder method)), in data set [1] (setting [4]) and in data set [1] (setting [5]) were 522 nm, 526 nm and 522 nm, respectively. The figures for the “A35/A23 *100” value in data set [2] (binder sheet (binder method)), in data set [2] (setting [4]) and in data set [2] (setting [5]) were 64%, 65% and 64%, respectively. The Residual rate stood at 83% in data set [3] (binder sheet (binder method)), 77% in data set [3] (setting [4]) and 72% in data set [3] (setting [5]).

Take `CCCC1(C)c2cc(Oc3ccccc3)ccc2-c2c1c1c(c3cc(OC)c(N4CCc5ccccc54)cc23)OC(c2ccc(OC)cc2)(c2ccc3c(c2)CCO3)C=C1` (stereo not drawn) [Formula (70A)]: the Maximum absorption wavelength was 535 nm in data set [1] (binder sheet (binder method)), 540 nm in data set [1] (setting [4]) and 536 nm in data set [1] (setting [5]). The “A35/A23 *100” value in data set [2] (binder sheet (binder method)) is 77%; in data set [2] (setting [4]), 78%; in data set [2] (setting [5]) it was 77%. Also, the Residual rate is 82% in data set [3] (binder sheet (binder method)), 77% in data set [3] (setting [4]) and 71% in data set [3] (setting [5]).

For the compound `COc1ccc(C2(c3ccc(N4CCOCC4)cc3)C=Cc3c4c(c5cc(N6CCc7ccccc76)c(C)cc5c3O2)-c2ccc(OC)cc2C4(CCCC(F)(F)F)CCCC(F)(F)F)cc1` (stereo not drawn) [Formula (45A)], the Maximum absorption wavelength in data set [1] (setting [5]) was 489 nm and 596 nm. In addition, the “A35/A23 *100” value in data set [2] (setting [5]) is listed as 67%. In addition, in data set [3] (setting [5]), the Residual rate is 65%.

As for `COCCOCCOCCC1(CCOCCOCCOC)c2ccccc2-c2c1c1c(c3cc(OC)c(N4CCc5cc(F)ccc54)cc23)OC(c2ccc(OC)cc2)(c2ccc(OC)cc2)C=C1` [Formula (50A)], the results for the Maximum absorption wavelength in data set [1] (binder sheet (binder method)), in data set [1] (setting [4]) and in data set [1] (setting [5]) were 522 nm, 526 nm and 522 nm, respectively. In addition, the “A35/A23 *100” value is 70% in data set [2] (binder sheet (binder method)), 71% in data set [2] (setting [4]) and 70% in data set [2] (setting [5]). For the same compound, the Residual rate in data set [3] (binder sheet (binder method)) came to 84%; in data set [3] (setting [4]) it was 76%; in data set [3] (setting [5]), 70%.

For the origin of these results see EP4692071A1, “PHOTOCHROMIC COMPOUND, NAPHTHOL DERIVATIVE, CURABLE COMPOSITION, OPTICAL ARTICLE, LENS, AND EYEGLASS” (TOKUYAMA CORPORATION, priority 2023, dated 2024).
